Our source for the IC50 values is patent US20230373937A1, “INHIBITORS OF SPINSTER HOMOLOG 2 (SPNS2) FOR USE IN THERAPY” (University of Virginia Patent Foundation, priority 2020, published 2023).

Each structure is given as a SMILES string. Where a name gives a salt, the structure may show the parent alone. Some results are limits rather than exact numbers.

In this assay the target is T1, SPNS2 (Mus musculus, UniProt Q91VM4).
T1 construct: expressed in transfected cells; host or cells: HeLa or U937 cells
T1 sequence (Q91VM4 1-549): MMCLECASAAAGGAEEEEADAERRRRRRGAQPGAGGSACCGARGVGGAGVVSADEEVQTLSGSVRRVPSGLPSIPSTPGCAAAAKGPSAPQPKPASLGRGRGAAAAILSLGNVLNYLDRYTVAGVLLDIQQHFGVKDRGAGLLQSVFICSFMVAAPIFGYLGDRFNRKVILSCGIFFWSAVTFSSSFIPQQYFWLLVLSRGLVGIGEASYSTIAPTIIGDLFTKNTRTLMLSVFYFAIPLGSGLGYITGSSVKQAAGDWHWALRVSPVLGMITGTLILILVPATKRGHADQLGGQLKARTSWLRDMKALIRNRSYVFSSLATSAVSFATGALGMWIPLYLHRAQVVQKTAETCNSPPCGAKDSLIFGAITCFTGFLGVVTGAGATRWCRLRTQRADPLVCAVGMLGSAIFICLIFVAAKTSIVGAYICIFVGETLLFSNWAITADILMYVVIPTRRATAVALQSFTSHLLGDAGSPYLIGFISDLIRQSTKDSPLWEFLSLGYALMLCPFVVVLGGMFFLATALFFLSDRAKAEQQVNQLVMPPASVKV
In words: S1P transporter assay: S1P release from whole cells expressing SPNS2. It counts as cell-based. The conditions noted are these: HeLa or U937 cells expressing mouse SPNS2; 18 hours; S1P in media measured by LC-MS; read-out: IC50 (in vitro inhibition against SPNS2). On the procedure: Transporter assays are vectorial and therefore require measurement of the transported analyte in different compartments. The S1P transporter SPNS2 only exports S1P, which obviates measuring uptake of S1P into transporter-expressing cells. Thus, transporter activity was determined by quantifying S1P release from whole cells expressing SPNS2. SPNS2 inhibitor potency was assessed using whole cell assays. HeLa or U937 cells expressing mouse SPNS2 were used to determine inhibitor potency (IC50). Cells were plated onto 12 well plates and assayed when the cell monolayers became confluent. Cell growth media (RPMI-1640 containing 10% fetal bovine serum) was replaced with 2 mL of serum-free media (RPMI-1640) containing fatty acid free bovine serum albumin (BSA) (0.2% w/v) and supplemented with 4-deoxypyridoxine (DOP) (1 mM), NaF (2 mM), Na3VO4 (0.2 mM) to inhibit S1P degradation. Test articles (1×10-9-1×10^-4 M) were assayed in duplicate or triplicate. After 18 hours, media was collected, an internal recovery standard (0.005 mL of 5×10^-7 M deuterated (d7) S1P in methanol) was added, the BSA was precipitated with trichloroacetic acid and the bound S1P extracted with methanol. S1P and S1P-d7 were measured by liquid chromatography mass spectrometry. Inhibitor potency at the human SPNS2 ortholog was determined by an analogous assay using U-937 cells, which endogenously express human SPNS2.
Turning to `CCCCCCCCCCc1ccc(-c2noc(CNC(=O)CCCN)n2)cc1` [Compound 9d, 4-amino-N-((3-(4-decylphenyl)-1,2,4-oxadiazol-5-yl)methyl)butanamide hydrochloride], the IC50 was at most 2000 nM.
The same measure for `CCCCCCCCCCc1ccc(-c2noc(CC(O)CN)n2)cc1` (stereo not shown) [Compound 5g, 1-amino-3-(3-(4-decylphenyl)-1,2,4-oxadiazol-5-yl)propan-2-ol hydrochloride]: above 2000 nM; for `CCCCCCCCCCc1ccc(-c2noc(CNC(=O)[C@@H]3CC[C@@H](N)C3)n2)cc1` [Compound 9ah, (1R,3R)-3-amino-N-((3-(4-decylphenyl)-1,2,4-oxadiazol-5-yl)methyl)cyclopentane-1-carboxamide hydrochloride]: at most 2000 nM; for `CCCCCCCCCCc1ccc(-c2noc(CNC(=O)[C@H]3CCCCN3)n2)cc1` [Compound 9t, (R)—N-((3-(4-decylphenyl)-1,2,4-oxadiazol-5-yl)methyl)piperidine-2-carboxamide hydrochloride]: above 2000 nM.
As for `CCCCCCCCCOc1ccc(-c2noc(CCCN)n2)cc1F` [Compound 5v, 3-(3-(3-fluoro-4-(nonyloxy)phenyl)-1,2,4-oxadiazol-5-yl)propan-1-amine hydrochloride], the figure is at most 2000 nM; as for `CCCCCCCCCCc1ccc(-c2noc(C3CCNCC3)n2)cc1` [Compound 5a, 3-(4-decylphenyl)-5-(piperidin-4-yl)-1,2,4-oxadiazole 2,2,2-trifluoroacetate], above 2000 nM.
The same measure for `CCCCCCCCCCc1ccc(-c2noc(CNC(=O)[C@@H]3CCCCN3)n2)cc1` [Compound 9i, (S)—N-((3-(4-decylphenyl)-1,2,4-oxadiazol-5-yl)methyl)piperidine-2-carboxamide hydrochloride]: at most 2000 nM; for `CCCCCCCCCCc1ccc(-c2noc(CNC(=O)C[C@@H]3CCCNC3)n2)cc1` [Compound 9o, (S)—N-((3-(4-decylphenyl)-1,2,4-oxadiazol-5-yl)methyl)-2-(piperidin-3-yl)acetamide hydrochloride]: above 2000 nM.
In the case of `CCCCCCCCCCc1ccc(-c2noc([C@@H](N)CCN)n2)cc1` [Compound 19c, (S)-1-(3-(4-decylphenyl)-1,2,4-oxadiazol-5-yl)propane-1,3-diamine dihydrochloride], the IC50 is at most 2000 nM.
For `CCCCCCCCCCc1ccc(-c2noc(CNC(=O)[C@@H]3C[C@H](O)CN3)n2)cc1` [Compound 9v, (2S,4S)—N-((3-(4-decylphenyl)-1,2,4-oxadiazol-5-yl)methyl)-4-hydroxypyrrolidine-2-carboxamide hydrochloride], the IC50 is above 2000 nM.
As for `CCCCCCCCCCc1ccc(-c2noc([C@@H]3CCN(C(=O)CN)C3)n2)cc1` [Compound 9al, (R)-2-amino-1-(3-(3-(4-decylphenyl)-1,2,4-oxadiazol-5-yl)pyrrolidin-1-yl)ethan-1-one 2,2,2-trifluoroacetate], the figure is above 2000 nM.
As for `CCCCCCCCCCc1ccc(-c2noc(CC(O)CN(C)C)n2)cc1` (stereo not shown) [Compound 7b, 1-(3-(4-decylphenyl)-1,2,4-oxadiazol-5-yl)-3-(dimethylamino)propan-2-ol hydrochloride], the figure is above 2000 nM; as for `CCCCCCCCCCc1cccc(-c2noc(CCCN)n2)c1` [Compound 5j, 3-(3-(3-decylphenyl)-1,2,4-oxadiazol-5-yl)propan-1-amine hydrochloride], at most 2000 nM; as for `CCCCCCCCCCc1ccc(-c2noc(CNC(=O)C3CCCCCN3)n2)cc1` (stereo not shown) [Compound 9u, N-((3-(4-decylphenyl)-1,2,4-oxadiazol-5-yl)methyl)azepane-2-carboxamide hydrochloride], at most 2000 nM.
The same measure for `C/C(=N\OCCCCc1ccccc1)c1ccc(-c2noc(CCCN)n2)cc1` [Compound 28, 1-(4-(5-(3-aminopropyl)-1,2,4-oxadiazol-3-yl)phenyl)ethan-1-one 0-(4-phenylbutyl) oxime hydrochloride]: above 2000 nM.
As to `CCCCCCCCCCc1ccc(-c2noc(CNC(=O)C3CCNCC3)n2)cc1` [Compound 9p, N-((3-(4-decylphenyl)-1,2,4-oxadiazol-5-yl)methyl)piperidine-4-carboxamide hydrochloride], the IC50 is above 2000 nM.
The same measure for `CCCCCCCCCCc1ccc(-c2noc(CC(O)CN3CCCCC3)n2)cc1` (stereo not shown) [Compound 6a, 1-(3-(4-decylphenyl)-1,2,4-oxadiazol-5-yl)-3-(piperidin-1-yl)propan-2-ol hydrochloride]: above 2000 nM; for `CCCCCCCOc1ccc2cc(-c3noc(CCCN)n3)ccc2c1` [Compound 5w, 3-(3-(6-(heptyloxy)naphthalen-2-yl)-1,2,4-oxadiazol-5-yl)propan-1-amine hydrochloride]: at most 2000 nM; for `CCCCCCCCCCc1ccc(-c2noc(CNC(=O)[C@@H]3CCCNC3)n2)cc1` [Compound 9ag, (R)—N-((3-(4-decylphenyl)-1,2,4-oxadiazol-5-yl)methyl)piperidine-3-carboxamide hydrochloride]: at most 2000 nM.
As for `CCCCCCCCCCc1ccc(-c2noc([C@@H](N)CCCN)n2)cc1` [Compound 19b, (S)-1-(3-(4-decylphenyl)-1,2,4-oxadiazol-5-yl)butane-1,4-diamine dihydrochloride], the figure is above 2000 nM; as for `CCCCCCCCCCc1ccc(-c2noc(CNC(=O)[C@@H]3CCCN3)n2)cc1` [Compound 9m, (S)—N-((3-(4-decylphenyl)-1,2,4-oxadiazol-5-yl)methyl)pyrrolidine-2-carboxamide hydrochloride], at most 2000 nM.
The same measure for `CCCCCCCCCCc1ccc(-c2noc(CNC(=O)C3(N)CC3)n2)cc1` [Compound 9af, 1-amino-N-((3-(4-decylphenyl)-1,2,4-oxadiazol-5-yl)methyl)cyclopropane-1-carboxamide hydrochloride]: above 2000 nM; for `CCCCCCCCCCc1ccc(-c2noc(CNC(=O)[C@H](C)N)n2)cc1` [Compound 9a, (S)-2-amino-N-((3-(4-decylphenyl)-1,2,4-oxadiazol-5-yl)methyl)propanamide hydrochloride]: at most 2000 nM.
Take `CCCCCCCCCCc1ccc(-c2noc(CNC(=O)CN3CCNCC3)n2)cc1` [Compound 9c, N-((3-(4-decylphenyl)-1,2,4-oxadiazol-5-yl)methyl)-2-(piperazin-1-yl)acetamide hydrochloride]: the IC50 is above 2000 nM.
The same measure for `CCCCCCCCCCc1ccc(-c2noc(CC(O)CN3CCOCC3)n2)cc1` (stereo not shown) [Compound 6c, 1-(3-(4-decylphenyl)-1,2,4-oxadiazol-5-yl)-3-morpholinopropan-2-ol hydrochloride]: above 2000 nM.
Turning to `CCCCCCCCCCc1ccc(-c2noc(CCCN(C)C)n2)cc1` [Compound 5l, 3-(3-(4-decylphenyl)-1,2,4-oxadiazol-5-yl)-N,N-dimethylpropan-1-amine hydrochloride], the IC50 was above 2000 nM.
For the compound `CCCCCCCCCCc1ccc(-c2noc(CNC(=O)[C@@H](N)Cc3ccccc3)n2)cc1` [Compound 9ac, (S)-2-amino-N-((3-(4-decylphenyl)-1,2,4-oxadiazol-5-yl)methyl)-3-phenylpropanamide hydrochloride], the IC50 was above 2000 nM.
With `CCCCCCCCCCc1ccc(-c2noc([C@H]3CCC[C@@H](N)C3)n2)cc1` (racemic) [Compound 5p, (f)-cis-3-(3-(4-decylphenyl)-1,2,4-oxadiazol-5-yl)cyclohexan-1-amine hydrochloride], the half-inhibitory concentration (IC50) was above 2000 nM.
On to `CCCCCCCCCCc1ccc(-c2noc(CNC(=O)[C@H]3CCNC3)n2)cc1` [Compound 9x, (S)—N-((3-(4-decylphenyl)-1,2,4-oxadiazol-5-yl)methyl)pyrrolidine-3-carboxamide hydrochloride], for which the IC50 was above 2000 nM.
The same measure for `NCCCc1nc(-c2ccc(OCc3ccccc3)cc2)no1` [Compound 5i, 3-(3-(4-(benzyloxy)phenyl)-1,2,4-oxadiazol-5-yl)propan-1-amine hydrochloride]: above 2000 nM; for `CCCCCCCCCCc1ccc(-c2noc(CNC(=O)[C@@H]3CCC[C@H](N)C3)n2)cc1` [Compound 9r, (1R,3S)-3-amino-N-((3-(4-decylphenyl)-1,2,4-oxadiazol-5-yl)methyl)cyclohexane-1-carboxamide hydrochloride]: at most 2000 nM.
